According to patent US9845330B2, “6-nitro-2,3-dihydroimidazo[2,1-b]oxazoles and a process for the preparation thereof” (priority 2013, dated 2017):
≈ marks a conversion by molar mass, not a printed value. Like-named read-outs stand apart in the source and are kept apart here.

Legend:
Assay type in all cases: cell-based
[1] = Cytotoxicity assay (MTT) in macrophage J774 cells; settings: mouse, J774 macrophage cells; also called safety index
Description: (§1) The study was carried out using macrophage J774 cells line (ATCC-USA). Cells were grown in Rosewell Park Memorial Institute Medium (RPMI) containing 10% fetal calf serum (FCS) and supplemented with 75 mg/liter penicillin, 100 mg/liter streptomycin, 110 mg/liter Sodium pyruvate, 2.38 gm/liter HEPES, 0.05 mM 2 β-mercaptoethanol, and 2 gm/liter NaHCO3, in a humidified atmosphere in 5% CO2 at 37° C., and were sub-cultured at 1:4 ratio once a week.
(§2) Cells were plated at a density of 3×10^4 cells/cm^2 and maintained in culture medium for 12 hours. Cells were seeded onto 96-well flat bottom plates and FCS was reduced to 5% for the experiment. Stock solutions of compounds IA1 to IIC10 were prepared fresh to avoid oxidation. Cells were incubated with the compounds (40 μg/ml) for 24 hrs.
(§3) After the completion of incubation, the medium was removed and cell viability was evaluated by assaying for the ability of functional mitochondria to catalyze the reduction of 3-(4,5-dimethylthiazol-2-yl)-2,5-diphenyltetrazolium bromide (MTT) to form formazan salt by mitochondrial dehydrogenases, and determined by Elisa reader at 450 nm (Multiskan Spectrum; Thermo Electron Corporation, USA). Percentage cytotoxicity was calculated with respect to the untreated cells.

[2] = test system: macrophage J774 cells line; test: Cytotoxicity assay (MTT) in macrophage J774 cells; settings: J774 cells, 24 hrs, MTT
Description: as §1, §2, §3

[3] = test system: M. tuberculosis H37Rv (ATCC 27294); test: MIC by broth dilution method, M. tuberculosis H37Rv; settings: Mycobacterium tuberculosis
[4] = 504 h, broth dilution, 3 weeks, read-out: MIC M. tb H37Rv
[5] = read-out: MIC value, text summary: sensitive H37Rv as well as MDR and XDR strains of M. tuberculosis

Row | Compound | selectivity ratio at 24 h, 40 μg/ml [1] | Cytotoxicity [2] | MIC [3, 4] | MIC [3, 5] | MIC ([3]; 504 h, read-out: MIC M. tb H37Rv, broth dilution, 3 weeks)
1 | C[C@]1(COc2ccc(-n3cc(-c4ccccc4)nn3)cc2)Cn2cc([N+](=O)[O-])nc2O1 [IA1] | > 10 | >40 µg/mL | 4 µg/mL (≈ 9.56 µM) |  | 
2 | CCc1ccc(-c2cn(-c3ccc(OC[C@@]4(C)Cn5cc([N+](=O)[O-])nc5O4)cc3)nn2)cc1 [IA2, (R)-2-{4-[4-(4-ethylphenyl)-1H-1,2,3-triazol-1-yl]phenoxymethyl}-2,3-dihydro-2-methyl-6-nitroimidazo[2,1-b]oxazole] | > 10 | >40 µg/mL | 2 µg/mL (≈ 4.48 µM) |  | 
3 | C[C@]1(COc2ccc(-n3cc(-c4ccc(F)cc4)nn3)cc2)Cn2cc([N+](=O)[O-])nc2O1 [IA3, (R)-2-{4-[4-(4-fluorophenyl)-1H-1,2,3-triazol-1-yl]phenoxymethyl}-2,3-dihydro-2-methyl-6-nitroimidazo[2,1-b]oxazole] | > 10 | >40 µg/mL | 0.25 µg/mL (≈ 0.573 µM) | < 1 µg/mL | 
4 | C[C@]1(COc2ccc(-n3cc(-c4ccc(OC(F)(F)F)cc4)nn3)cc2)Cn2cc([N+](=O)[O-])nc2O1 [IA5, (R)-2-{4-[4-(4-trifluoromethoxyphenyl)-1H-1,2,3-triazol-1-yl]phenoxymethyl}-2,3-dihydro-2-methyl-6-nitroimidazo[2,1-b]oxazole] | > 10 | >40 µg/mL | 0.5 µg/mL (≈ 0.995 µM) | < 1 µg/mL | 
5 | C[C@]1(COc2ccc(-n3cc(-c4ccccc4C(F)(F)F)nn3)cc2)Cn2cc([N+](=O)[O-])nc2O1 [IA6, (R)-2-{4-[4-(2-trifluoromethylphenyl)-1H-1,2,3-triazol-1-yl]phenoxymethyl}-2,3-dihydro-2-methyl-6-nitroimidazo[2,1-b]oxazole] | > 10 | >40 µg/mL | 1 µg/mL (≈ 2.06 µM) |  | 
6 | COc1ccc(-c2cn(-c3ccc(OC[C@@]4(C)Cn5cc([N+](=O)[O-])nc5O4)cc3)nn2)cc1 [IA11, (R)-2-{4-[4-(4-methoxyphenyl)-1H-1,2,3-triazol-1-yl]phenoxymethyl}-2,3-dihydro-2-methyl-6-nitroimidazo[2,1-b]oxazole] | > 10 | >40 µg/mL | 0.25 µg/mL (≈ 0.557 µM) | < 1 µg/mL | 
7 | C[C@]1(COc2ccc(-n3cc(-c4cccc(OC(F)(F)F)c4)nn3)cc2)Cn2cc([N+](=O)[O-])nc2O1 [IA12, (R)-2-{4-[4-(3-trifluoromethoxyphenyl)-1H-1,2,3-triazol-1-yl]phenoxymethyl}-2,3-dihydro-2-methyl-6-nitroimidazo[2,1-b]oxazole] | > 10 | >40 µg/mL | 0.5 µg/mL (≈ 0.995 µM) | < 1 µg/mL | 
8 | C[C@]1(COc2ccc(-n3cc(-c4cccc(C(F)(F)F)c4)nn3)cc2)Cn2cc([N+](=O)[O-])nc2O1 [IA13, (R)-2-{4-[4-(3-trifluoromethylphenyl)-1H-1,2,3-triazol-1-yl]phenoxymethyl}-2,3-dihydro-2-methyl-6-nitroimidazo[2,1-b]oxazole] | > 10 | >40 µg/mL | 2 µg/mL (≈ 4.11 µM) |  | 
9 | C[C@]1(COc2ccc(-n3cc(-c4ccccn4)nn3)cc2)Cn2cc([N+](=O)[O-])nc2O1 [IA14] | > 10 | >40 µg/mL | 2 µg/mL (≈ 4.77 µM) |  | 
10 | CCCCCc1cn(-c2ccc(OC[C@@]3(C)Cn4cc([N+](=O)[O-])nc4O3)cc2)nn1 [IA15, (R)-2-{4-[4-pentyl-1H-1,2,3-triazol-1-yl]phenoxymethyl}-2,3-dihydro-2-methyl-6-nitroimidazo[2,1-b]oxazole] | > 10 | >40 µg/mL | 32 µg/mL (≈ 77.6 µM) |  | 
11 | C[C@]1(COc2ccccc2-n2cc(-c3ccc(F)cc3F)nn2)Cn2cc([N+](=O)[O-])nc2O1 [IA24, (R)-2-{2-[4-(2,4-difluorophenyl)-1H-1,2,3-triazol-1-yl]phenoxymethyl}-2,3-dihydro-2-methyl-6-nitroimidazo[2,1-b]oxazole] | > 10 | >40 µg/mL | 1 µg/mL (≈ 2.2 µM) |  | 
12 | C[C@]1(COc2ccc(-n3cc(COc4ccc(F)cc4)nn3)cc2)Cn2cc([N+](=O)[O-])nc2O1 [IA26] | > 10 | >40 µg/mL | 0.5 µg/mL (≈ 1.07 µM) | < 1 µg/mL | 
13 | C[C@]1(COc2ccc(-n3cc(COc4ccc(C(F)(F)F)cc4)nn3)cc2)Cn2cc([N+](=O)[O-])nc2O1 [IA27] | > 10 | >40 µg/mL | 0.25 µg/mL (≈ 0.484 µM) | < 1 µg/mL | 
14 | C[C@]1(COc2ccc(-n3cc(COc4ccccc4F)nn3)cc2)Cn2cc([N+](=O)[O-])nc2O1 [IA28] | > 10 | >40 µg/mL | 0.12 µg/mL (≈ 0.257 µM) | < 1 µg/mL | 
15 | Cc1ccc(OCc2cn(-c3ccc(OC[C@@]4(C)Cn5cc([N+](=O)[O-])nc5O4)cc3)nn2)cc1 [IA29] | > 10 | >40 µg/mL | 32 µg/mL (≈ 69.2 µM) |  | 
16 | CC(C)c1ccc(OCc2cn(-c3ccc(OC[C@@]4(C)Cn5cc([N+](=O)[O-])nc5O4)cc3)nn2)cc1 [IA30] | > 10 | >40 µg/mL | 32 µg/mL (≈ 65.2 µM) |  | 
17 | CCc1ccc(OCc2cn(-c3ccc(OC[C@@]4(C)Cn5cc([N+](=O)[O-])nc5O4)cc3)nn2)cc1 [IA31] | > 10 | >40 µg/mL | 0.25 µg/mL (≈ 0.525 µM) | < 1 µg/mL | 
18 | CCC(C)c1ccc(OCc2cn(-c3ccc(OC[C@@]4(C)Cn5cc([N+](=O)[O-])nc5O4)cc3)nn2)cc1 (stereo partly drawn) [IA32] | > 10 | >40 µg/mL | 0.12 µg/mL (≈ 0.238 µM) | < 1 µg/mL | 
19 | C[C@]1(COc2cccc(-n3cc(COc4ccc(F)cc4)nn3)c2)Cn2cc([N+](=O)[O-])nc2O1 [IA34] | > 10 | >40 µg/mL | 0.12 µg/mL (≈ 0.257 µM) | < 1 µg/mL | 
20 | C[C@]1(COc2ccccc2-n2cc(COc3ccc(OC(F)(F)F)cc3)nn2)Cn2cc([N+](=O)[O-])nc2O1 [IA39] | > 10 | >40 µg/mL | 1 µg/mL (≈ 1.88 µM) |  | 
21 | C[C@]1(COc2ccccc2-n2cc(COc3ccc(F)cc3)nn2)Cn2cc([N+](=O)[O-])nc2O1 [IA40] | > 10 | >40 µg/mL | 4 µg/mL (≈ 8.58 µM) |  | 
22 | C[C@]1(COc2ccccc2-n2cc(COc3ccc(C(F)(F)F)cc3)nn2)Cn2cc([N+](=O)[O-])nc2O1 [IA41] | > 10 | >40 µg/mL | 2 µg/mL (≈ 3.87 µM) |  | 
23 | C[C@]1(COc2ccccc2-n2cc(COc3ccccc3F)nn2)Cn2cc([N+](=O)[O-])nc2O1 [IA42] | > 10 | >40 µg/mL | 2 µg/mL (≈ 4.29 µM) |  | 
24 | C[C@]1(COc2ccc(-c3cc(-c4ccccc4)on3)cc2)Cn2cc([N+](=O)[O-])nc2O1 [IC1, (R)-2-{4-[5-phenylisoxazol-3-yl]phenoxymethyl}-2,3-dihydro-2-methyl-6-nitroimidazo[2,1-b]oxazole] | > 10 | >40 µg/mL |  | < 1 µg/mL | 0.06 µg/mL (≈ 0.143 µM)
25 | CN(c1ccccc1)S(=O)(=O)c1ccc(OC[C@@]2(C)Cn3cc([N+](=O)[O-])nc3O2)cc1 [IIB4, (R)—N-methyl-4-{(2-methyl-6-nitro-2,3-dihydroimidazo[2,1-b]oxazol-2-yl)methoxy}-N-phenylbenzenesulfonamide] |  | >40 µg/mL | 4 µg/mL (≈ 9 µM) |  | 
26 | Cc1ccc(N(C)S(=O)(=O)c2ccc(OC[C@@]3(C)Cn4cc([N+](=O)[O-])nc4O3)cc2)cc1 [IIB5, (R)—N-methyl-4-{(2-methyl-6-nitro-2,3-dihydroimidazo[2,1-b]oxazol-2-yl)methoxy}-N-(p-tolyl)benzenesulfonamide] |  | >40 µg/mL | 4 µg/mL (≈ 8.72 µM) |  | 
27 | CN(c1ccc(C(F)(F)F)cc1)S(=O)(=O)c1ccc(OC[C@@]2(C)Cn3cc([N+](=O)[O-])nc3O2)cc1 [IIB6, (R)—N-methyl-4-{(2-methyl-6-nitro-2,3-dihydroimidazo[2,1-b]oxazol-2-yl)methoxy}-N-(p-trifluoromethylphenyl)benzenesulfonamide] |  | >40 µg/mL | 1 µg/mL (≈ 1.95 µM) |  | 
28 | C[C@]1(COc2ccc(S(=O)(=O)N3CCN(c4ccccc4)CC3)cc2)Cn2cc([N+](=O)[O-])nc2O1 [IIC1, (R)-2-{4-(4-phenylpiperazin-1-yl)sulfonylphenoxymethyl}-2,3-dihydro-2-methyl-6-nitroimidazo[2,1-b]oxazole] |  | >40 µg/mL | 1 µg/mL (≈ 2 µM) |  | 
29 | C[C@]1(COc2ccc(S(=O)(=O)N3CCN(c4ccc(F)cc4)CC3)cc2)Cn2cc([N+](=O)[O-])nc2O1 [IIC2, (R)-2-{4-[4-(4-fluorophenyl)piperazin-1-yl]sulfonylphenoxymethyl}-2,3-dihydro-2-methyl-6-nitroimidazo[2,1-b]oxazole] |  | >40 µg/mL | 2 µg/mL (≈ 3.86 µM) |  | 
